# Laboratory results reported in PubChem BioAssay AID1918944 (Molecular Pharmacology Branch, DTP, NCI, 2023).
# Where “and” joins values, the source holds several entries; their conditions need not be identical. Identical values can stand only once.
# System: 786-0 complex spheroid viability
# Test: Anticancer human tumor 786-0 cell line growth inhibition;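 note: spheroids exposed to agents for seven days before readout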
# Conditions: for viability, T/C: stronger effect = lower value
# Summary of the method: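 Complex spheroids of tumor cells with HUVEC and human MSCs, exposed to iadademstat combined with other agents. Each agent tested in half-log steps from near clinical Cmax (else 10 microM top), DMSO ≤0.25%.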
# [1] = curve of first compound, second compound 0.1 µM
# [2] = curve of first compound, second compound 0.316 µM
# [3] = curve of first compound, second compound 1 µM
# [4] = curve of first compound, second compound 3.16 µM
# [5] = curve of first compound, second compound 10 µM
# [6] = second compound 0.1 µM, first compound 0.0316 µM
# [7] = second compound 0.1 µM, first compound 0.1 µM
# [8] = second compound 0.1 µM, first compound 0.316 µM
# [9] = second compound 0.1 µM, first compound 1 µM
# [10] = second compound 0.1 µM, first compound 3.16 µM
# [11] = second compound 0.1 µM, first compound 10 µM
# [12] = second compound 0.316 µM, first compound 0.0316 µM
# [13] = second compound 0.316 µM, first compound 0.1 µM
# [14] = second compound 0.316 µM, first compound 0.316 µM
# [15] = second compound 0.316 µM, first compound 1 µM
# [16] = second compound 0.316 µM, first compound 3.16 µM
# [17] = second compound 0.316 µM, first compound 10 µM
# [18] = second compound 1 µM, first compound 0.0316 µM
# [19] = second compound 1 µM, first compound 0.1 µM
# [20] = second compound 1 µM, first compound 0.316 µM
# [21] = second compound 1 µM, first compound 1 µM
# [22] = second compound 1 µM, first compound 3.16 µM
# [23] = second compound 1 µM, first compound 10 µM
# [24] = second compound 3.16 µM, first compound 0.0316 µM
# [25] = second compound 3.16 µM, first compound 0.1 µM
# [26] = second compound 3.16 µM, first compound 0.316 µM
# [27] = second compound 3.16 µM, first compound 1 µM
# [28] = second compound 3.16 µM, first compound 3.16 µM
# [29] = second compound 3.16 µM, first compound 10 µM
# [30] = second compound 10 µM, first compound 0.0316 µM
# [31] = second compound 10 µM, first compound 0.1 µM
# [32] = second compound 10 µM, first compound 0.316 µM
# [33] = second compound 10 µM, first compound 1 µM
# [34] = second compound 10 µM, first compound 3.16 µM
# [35] = second compound 10 µM, first compound 10 µM
smiles,measurement,setting,value
CC1(C)CCC(CN2CCN(c3ccc(C(=O)NS(=O)(=O)c4ccc(NCC5CCOCC5)c([N+](=O)[O-])c4)c(Oc4cnc5[nH]ccc5c4)c3)CC2)=C(c2ccc(Cl)cc2)C1 + NC1CC1c1ccc(-c2cccc(O)c2)cc1,IC50,[1],> 10 µM
same,IC50,[2],> 10 µM
same,IC50,[3],> 10 µM
same,IC50,[4],> 10 µM
same,IC50,[5],8.09 µM
same,"viability, T/C",[6],119%
same,"viability, T/C",[7],114%
same,"viability, T/C",[8],115%
same,"viability, T/C",[9],110%
same,"viability, T/C",[10],103%
same,"viability, T/C",[11],66.6%
same,"viability, T/C",[12],105%
same,"viability, T/C",[13],114%
same,"viability, T/C",[14],106%
same,"viability, T/C",[15],111%
same,"viability, T/C",[16],100%
same,"viability, T/C",[17],68.6%
same,"viability, T/C",[18],113%
same,"viability, T/C",[19],114%
same,"viability, T/C",[20],106%
same,"viability, T/C",[21],106%
same,"viability, T/C",[22],96.3%
same,"viability, T/C",[23],60.9%
same,"viability, T/C",[24],105%
same,"viability, T/C",[25],110%
same,"viability, T/C",[26],106%
same,"viability, T/C",[27],101%
same,"viability, T/C",[28],93.3%
same,"viability, T/C",[29],57.3%
same,"viability, T/C",[30],102%
same,"viability, T/C",[31],95.7%
same,"viability, T/C",[32],103%
same,"viability, T/C",[33],90.8%
same,"viability, T/C",[34],81.6%
same,"viability, T/C",[35],42.6%
CC1COCCN1c1cc(-c2ccnn2C)c2ccnc(-c3ccn[nH]3)c2n1 (configuration not stated),"viability, T/C",compound 0.00316 µM,101% and 93.8%
same,"viability, T/C",compound 0.01 µM,95.2% and 97.4%
same,"viability, T/C",compound 0.0316 µM,56.1% and 64.5%
same,"viability, T/C",compound 0.1 µM,23.4% and 27.1%
same,"viability, T/C",compound 0.316 µM,11.3% and 22.2%
same,"viability, T/C",compound 1 µM,12.7% and 18%
same,IC50,curve of compound,0.04 µM and 0.0493 µM
COc1cc(C2c3cc4c(cc3C(OC3OC5COC(C)OC5C(O)C3O)C3COC(=O)C23)OCO4)cc(OC)c1O (configuration not stated) + NC1CCC(NC2CC2c2ccccc2)CC1,IC50,[1],0.203 µM
same,IC50,[2],0.216 µM
same,IC50,[3],0.199 µM
same,IC50,[4],0.149 µM
same,IC50,[5],0.115 µM
same,"viability, T/C","second compound 0.1 µM, first compound 0.00949 µM",115%
same,"viability, T/C","second compound 0.1 µM, first compound 0.03 µM",105%
same,"viability, T/C","second compound 0.1 µM, first compound 0.0949 µM",61.1%
same,"viability, T/C","second compound 0.1 µM, first compound 0.3 µM",44.3%
same,"viability, T/C","second compound 0.1 µM, first compound 0.949 µM",22%
same,"viability, T/C","second compound 0.1 µM, first compound 3 µM",9.16%
same,"viability, T/C","second compound 0.316 µM, first compound 0.00949 µM",122%
same,"viability, T/C","second compound 0.316 µM, first compound 0.03 µM",119%
same,"viability, T/C","second compound 0.316 µM, first compound 0.0949 µM",65.7%
same,"viability, T/C","second compound 0.316 µM, first compound 0.3 µM",45.8%
same,"viability, T/C","second compound 0.316 µM, first compound 0.949 µM",19.4%
same,"viability, T/C","second compound 0.316 µM, first compound 3 µM",8.96%
same,"viability, T/C","second compound 1 µM, first compound 0.00949 µM",118%
same,"viability, T/C","second compound 1 µM, first compound 0.03 µM",110%
same,"viability, T/C","second compound 1 µM, first compound 0.0949 µM",66.4%
same,"viability, T/C","second compound 1 µM, first compound 0.3 µM",40.7%
same,"viability, T/C","second compound 1 µM, first compound 0.949 µM",18.8%
same,"viability, T/C","second compound 1 µM, first compound 3 µM",8.18%
same,"viability, T/C","second compound 3.16 µM, first compound 0.00949 µM",107%
same,"viability, T/C","second compound 3.16 µM, first compound 0.03 µM",104%
same,"viability, T/C","second compound 3.16 µM, first compound 0.0949 µM",56.2%
same,"viability, T/C","second compound 3.16 µM, first compound 0.3 µM",34.4%
same,"viability, T/C","second compound 3.16 µM, first compound 0.949 µM",17.1%
same,"viability, T/C","second compound 3.16 µM, first compound 3 µM",7.91%
same,"viability, T/C","second compound 10 µM, first compound 0.00949 µM",81.6%
same,"viability, T/C","second compound 10 µM, first compound 0.03 µM",79.6%
same,"viability, T/C","second compound 10 µM, first compound 0.0949 µM",48.1%
same,"viability, T/C","second compound 10 µM, first compound 0.3 µM",33.2%
same,"viability, T/C","second compound 10 µM, first compound 0.949 µM",16.4%
same,"viability, T/C","second compound 10 µM, first compound 3 µM",4.68%
CC(C)c1c(-c2ccccc2)nc2c(C#N)c[nH]n2c1=O + NC1CC1c1ccc(-c2cccc(O)c2)cc1,IC50,[1],> 10 µM
same,IC50,[2],> 10 µM
same,IC50,[3],> 10 µM
same,IC50,[4],> 10 µM
same,IC50,[5],> 10 µM
same,"viability, T/C",[6],114%
same,"viability, T/C",[7],120%
same,"viability, T/C",[8],124%
same,"viability, T/C",[9],121%
same,"viability, T/C",[10],116%
same,"viability, T/C",[11],119%
same,"viability, T/C",[12],118%
same,"viability, T/C",[13],117%
same,"viability, T/C",[14],115%
same,"viability, T/C",[15],121%
same,"viability, T/C",[16],119%
same,"viability, T/C",[17],115%
same,"viability, T/C",[18],117%
same,"viability, T/C",[19],121%
same,"viability, T/C",[20],123%
same,"viability, T/C",[21],118%
same,"viability, T/C",[22],116%
same,"viability, T/C",[23],113%
same,"viability, T/C",[24],113%
same,"viability, T/C",[25],113%
same,"viability, T/C",[26],121%
same,"viability, T/C",[27],121%
same,"viability, T/C",[28],117%
same,"viability, T/C",[29],116%
same,"viability, T/C",[30],103%
same,"viability, T/C",[31],106%
same,"viability, T/C",[32],110%
same,"viability, T/C",[33],107%
same,"viability, T/C",[34],107%
same,"viability, T/C",[35],113%
